For two compounds, IC50 and melting point results are on record in patent US8202871B2, “Indol-2-one derivatives disubstituted in the 3-position, preparation thereof and therapeutic use thereof” (Sanofi-Aventis, priority 2007, dated 2012).

One data set addresses T1, ghrelin receptor (Rattus norvegicus, UniProt O08725).
T1 construct: Strips of approximately 1 cm (5 mm wide) of gastric fundus were cut out along the longitudinal axis; from tissue; host or cells: rat gastric fundus strips
Kind of data set: Antagonism of ghrelin on electric-field-stimulated contractions of isolated rat gastric fundus strips (headed 'In Vivo Test'). As to conditions: ghrelin 0.1 nM-1 μM concentration-response curves with and without antagonist, contact time 30 minutes, read-out: antagonist activity towards the ghrelin receptor, IC50. As for the experimental part: The compounds according to the invention underwent in vivo studies.
Male Crl CD BR rats (Charles River, Italy) weighing 150-175 g were housed in a chamber at regulated temperature (22±1° C.) and humidity (55±10%) and with a 12-hour lightness-darkness cycle, for at least 7 days before their use. Feed and water were available ad libitum. The feed was removed 18 hours before sacrificing the animals. The rats were sacrificed by cervical dislocation, and the stomach was removed surgically, opened along the shorter curvature and placed in a Krebs solution (of composition (mM): 118.4 NaCl; 4.7 KCl; 2.5 CaCl2; 3.7 NaH2PO4; 1.2 MgSO4; 25 NaHCO3; 5.6 glucose). The animals were cared for and sacrificed according to the Sanofi-Aventis international code of ethics and the international principles governing the care and treatment of laboratory animals (EEC Directive 86/609, DJL358, 1, 12 Dec. 1987). […] The contractions were recorded by computer with a data recording and analysis system (Power Lab, Chart 5) connected to isotonic transducers (Ugo Basile, Varese, Italy) via preamplifiers (Octal Bridge Amp). […] The pKb values for the antagonists were calculated according to the Cheng-Prusoff equation (Kenakin et al., Competitive Antagonism, Pharmacologic Analysis of Drug-Receptor Interaction, 3rd edition, 331-373, Philadelphia, New York; Raven: Lippincott, 1997).

T1 sequence (O08725 whole entry): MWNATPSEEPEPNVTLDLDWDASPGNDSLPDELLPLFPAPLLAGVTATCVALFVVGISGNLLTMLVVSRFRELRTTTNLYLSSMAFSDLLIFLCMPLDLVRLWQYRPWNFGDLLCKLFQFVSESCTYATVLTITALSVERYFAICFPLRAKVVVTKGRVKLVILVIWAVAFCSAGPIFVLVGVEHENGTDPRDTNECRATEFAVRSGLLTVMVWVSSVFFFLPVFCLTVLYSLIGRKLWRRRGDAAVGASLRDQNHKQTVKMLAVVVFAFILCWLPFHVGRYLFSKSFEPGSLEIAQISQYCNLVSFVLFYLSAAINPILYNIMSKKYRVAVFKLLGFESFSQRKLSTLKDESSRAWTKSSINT

As a reminder, the IC50 is the concentration at which inhibition is half-maximal. The melting point is the temperature of the solid-liquid transition. For `CN1CCN(CC(=O)NC2(c3ccc(Cl)cc3)C(=O)Nc3cc(Cl)c(Cl)cc32)CC1` (single isomer, unassigned; (+)) [Compound 1, (+)-N-[5,6-Dichloro-3-(4-chlorophenyl)-2-oxo-2,3-dihydro-1H-indol-3-yl]-2-(4-methylpiperazin-1-yl)acetamide], the melting point was in the range of 207.1 to 207.6 °C. In addition, on ghrelin receptor, the IC50 came to 50 nM.
In the case of `CCN1CCC(CC(=O)NC2(c3ccc(C(F)(F)F)cc3)C(=O)Nc3cc(Cl)cc(Cl)c32)CC1` (single isomer, unassigned; (+)) [Compound 2, (+)-N-[4,6-Dichloro-3-(4-trifluoromethylphenyl)-2-oxo-2,3-dihydro-1H-indol-3-yl]-2-(1-ethylpiperid-4-yl)acetamide], the melting point was in the range of 158 to 162 °C. The IC50 at ghrelin receptor was 1 nM.
